Assay results: patent US10166237B2, “Compounds and methods for inducing chondrogenesis” (The Scripps Research Institute, priority 2011, dated 2019)

Experiments:
C57BL/10 mice = assay: collagenase VII-induced knee joint damage; format: in vivo; details: 10 μM intra-articular on days 7 and 21
Experimental: IA injections of C57BL/10 mice with collagenase VII (12 U/knee) induced joint damage through digestion of the ligament of the knee. The mice were dosed intra-articularly on days 7 and 21 with 10 μM PRO1 or PBS. On day 56 the mice were euthanized for histopathological analyses. Parafin blocks were sectioned at 5 um and stained with Safranin O, and representative data was collected for the PBS- and PRO1-treated mice (FIG. 3A). The total medial tibial plateau joint score was determined by two blinded observers and averaged to represent the data shown here using the OARSI scoring system (FIG. 3B). Peripheral blood was collected from each mouse by retro-orbital bleeding on day 1, day 13 and day 56. The circulating COMP was determined by the Animal COMP ELISA kit according to the manufacturer's instructions (MDBioproducts, St Paul, Minn.). Pooled data, 10 mice/group (FIG. 3C).

FLNA = biological target: T1, FLNA (Homo sapiens, UniProt P21333); assay: photo-crosslinking of biotin-PRO1-azide in hMSCs, competition with PRO1, proteomics; format: binding
T1 construct: endogenous in cells; host or cells: hMSCs (primary human mesenchymal stem cells)
Experimental: To identify the interaction of PRO1 and FLNA, 5 μM biotin-PRO1-azide was added to hMSCs in the differentiation media in the absence or presence of a 50-fold molar excess of PRO1 and incubated for 30 min. 254-nm light was applied to the cells for another 30 min. Cells were lysed in lysis buffer (20 mM Tris-HCl, pH=7.4, 150 mM NaCl, 1 mM EDTA, 1 mM DTT, 0.5% v/v Triton X-100, protease inhibitor cocktail), passed through 26 1/2 gauge needles 20 times, and centrifuged at 12,000 rpm for 30 min. The supernatant was subjected to ammonium sulfate precipitation fractionation. Fractions were analyzed by Western blotting using an anti-biotin antibody (FIG. 6A). Fractions containing 20-40% ammonium sulfate were precipitated using trichloroacetic acid (TCA) and resuspended in isoelectric focusing sample buffer and subjected to 2D SDS-PAGE and Western blotting against biotin. Proteins specifically labeled by biotin-PRO1-azide were recognized, and the corresponding spots on a parallel gel visualized by silver staining were excised. These proteins were identified by mass spectrometry proteomics analysis. hMSCs were treated in monolayer or pellet culture (as indicated in FIG. 6B-6C) for 24-72 hrs. 15 μg of protein was separated by SDS-PAGE and hMSCs were fractionated (as indicated in FIG. 6B-6C) into cytosolic and nuclear fractions or monomeric and filamentous components as previously described.

HEK 293 cells = assay: toxicity in HEK 293 cells; format: cell-based; details: 100 μM
chondrocytes = assay: toxicity in chondrocytes; format: cell-based; details: 100 μM
hMSCs = assay: toxicity in hMSCs; format: cell-based, human; details: 100 μM
[1] = tested on: bovine cartilage explants; assay: cytokine-induced GAG release from cartilage explants ex vivo; format: cell-based; details: TNFα and oncostatin M, 72 hours; up to
Text: In the screen, hMSCs were used as a surrogate to future targeting of the resident MSCs with the cartilage joint. It was in that setting upon which we identified PRO1. In a joint injury, the primary cell type a therapeutic would have contact with is the chondrocyte. Although cartilage or chondrocyte-targeted screening has not lead to the development of a successful drug modifying osteoarthritis drug (DMOAD) to date, it is believed that a stem cell-based therapeutic would protect and even repair the existing chondrocytes. Therefore, protection of the articular chondrocytes and cartilage from a mature bovine knee was assessed. PRO1 and its analogues were incubated with primary bovine chondrocytes or cartilage explants cultures grown in the presence of TNFα and oncostatin M to mimic the cytokine-induced damage that can occur during OA. In the presence of the cytokine cocktail, in vitro cultured primary chondrocytes released 4-5 fold more nitric oxide (NO) than the untreated chondrocytes (50 μM vs 10 μM) as measured by the Greiss reaction. […]
Primary hMSCs were plated (10,000/well) in 384-well plates and cultured for 18 days. […] 20 μl of the supernatant was mixed with 20 μl of the Greiss reagent and quantitated at 540 nm as described by the Promega kit instructions. […]

T1 sequence (P21333 whole entry): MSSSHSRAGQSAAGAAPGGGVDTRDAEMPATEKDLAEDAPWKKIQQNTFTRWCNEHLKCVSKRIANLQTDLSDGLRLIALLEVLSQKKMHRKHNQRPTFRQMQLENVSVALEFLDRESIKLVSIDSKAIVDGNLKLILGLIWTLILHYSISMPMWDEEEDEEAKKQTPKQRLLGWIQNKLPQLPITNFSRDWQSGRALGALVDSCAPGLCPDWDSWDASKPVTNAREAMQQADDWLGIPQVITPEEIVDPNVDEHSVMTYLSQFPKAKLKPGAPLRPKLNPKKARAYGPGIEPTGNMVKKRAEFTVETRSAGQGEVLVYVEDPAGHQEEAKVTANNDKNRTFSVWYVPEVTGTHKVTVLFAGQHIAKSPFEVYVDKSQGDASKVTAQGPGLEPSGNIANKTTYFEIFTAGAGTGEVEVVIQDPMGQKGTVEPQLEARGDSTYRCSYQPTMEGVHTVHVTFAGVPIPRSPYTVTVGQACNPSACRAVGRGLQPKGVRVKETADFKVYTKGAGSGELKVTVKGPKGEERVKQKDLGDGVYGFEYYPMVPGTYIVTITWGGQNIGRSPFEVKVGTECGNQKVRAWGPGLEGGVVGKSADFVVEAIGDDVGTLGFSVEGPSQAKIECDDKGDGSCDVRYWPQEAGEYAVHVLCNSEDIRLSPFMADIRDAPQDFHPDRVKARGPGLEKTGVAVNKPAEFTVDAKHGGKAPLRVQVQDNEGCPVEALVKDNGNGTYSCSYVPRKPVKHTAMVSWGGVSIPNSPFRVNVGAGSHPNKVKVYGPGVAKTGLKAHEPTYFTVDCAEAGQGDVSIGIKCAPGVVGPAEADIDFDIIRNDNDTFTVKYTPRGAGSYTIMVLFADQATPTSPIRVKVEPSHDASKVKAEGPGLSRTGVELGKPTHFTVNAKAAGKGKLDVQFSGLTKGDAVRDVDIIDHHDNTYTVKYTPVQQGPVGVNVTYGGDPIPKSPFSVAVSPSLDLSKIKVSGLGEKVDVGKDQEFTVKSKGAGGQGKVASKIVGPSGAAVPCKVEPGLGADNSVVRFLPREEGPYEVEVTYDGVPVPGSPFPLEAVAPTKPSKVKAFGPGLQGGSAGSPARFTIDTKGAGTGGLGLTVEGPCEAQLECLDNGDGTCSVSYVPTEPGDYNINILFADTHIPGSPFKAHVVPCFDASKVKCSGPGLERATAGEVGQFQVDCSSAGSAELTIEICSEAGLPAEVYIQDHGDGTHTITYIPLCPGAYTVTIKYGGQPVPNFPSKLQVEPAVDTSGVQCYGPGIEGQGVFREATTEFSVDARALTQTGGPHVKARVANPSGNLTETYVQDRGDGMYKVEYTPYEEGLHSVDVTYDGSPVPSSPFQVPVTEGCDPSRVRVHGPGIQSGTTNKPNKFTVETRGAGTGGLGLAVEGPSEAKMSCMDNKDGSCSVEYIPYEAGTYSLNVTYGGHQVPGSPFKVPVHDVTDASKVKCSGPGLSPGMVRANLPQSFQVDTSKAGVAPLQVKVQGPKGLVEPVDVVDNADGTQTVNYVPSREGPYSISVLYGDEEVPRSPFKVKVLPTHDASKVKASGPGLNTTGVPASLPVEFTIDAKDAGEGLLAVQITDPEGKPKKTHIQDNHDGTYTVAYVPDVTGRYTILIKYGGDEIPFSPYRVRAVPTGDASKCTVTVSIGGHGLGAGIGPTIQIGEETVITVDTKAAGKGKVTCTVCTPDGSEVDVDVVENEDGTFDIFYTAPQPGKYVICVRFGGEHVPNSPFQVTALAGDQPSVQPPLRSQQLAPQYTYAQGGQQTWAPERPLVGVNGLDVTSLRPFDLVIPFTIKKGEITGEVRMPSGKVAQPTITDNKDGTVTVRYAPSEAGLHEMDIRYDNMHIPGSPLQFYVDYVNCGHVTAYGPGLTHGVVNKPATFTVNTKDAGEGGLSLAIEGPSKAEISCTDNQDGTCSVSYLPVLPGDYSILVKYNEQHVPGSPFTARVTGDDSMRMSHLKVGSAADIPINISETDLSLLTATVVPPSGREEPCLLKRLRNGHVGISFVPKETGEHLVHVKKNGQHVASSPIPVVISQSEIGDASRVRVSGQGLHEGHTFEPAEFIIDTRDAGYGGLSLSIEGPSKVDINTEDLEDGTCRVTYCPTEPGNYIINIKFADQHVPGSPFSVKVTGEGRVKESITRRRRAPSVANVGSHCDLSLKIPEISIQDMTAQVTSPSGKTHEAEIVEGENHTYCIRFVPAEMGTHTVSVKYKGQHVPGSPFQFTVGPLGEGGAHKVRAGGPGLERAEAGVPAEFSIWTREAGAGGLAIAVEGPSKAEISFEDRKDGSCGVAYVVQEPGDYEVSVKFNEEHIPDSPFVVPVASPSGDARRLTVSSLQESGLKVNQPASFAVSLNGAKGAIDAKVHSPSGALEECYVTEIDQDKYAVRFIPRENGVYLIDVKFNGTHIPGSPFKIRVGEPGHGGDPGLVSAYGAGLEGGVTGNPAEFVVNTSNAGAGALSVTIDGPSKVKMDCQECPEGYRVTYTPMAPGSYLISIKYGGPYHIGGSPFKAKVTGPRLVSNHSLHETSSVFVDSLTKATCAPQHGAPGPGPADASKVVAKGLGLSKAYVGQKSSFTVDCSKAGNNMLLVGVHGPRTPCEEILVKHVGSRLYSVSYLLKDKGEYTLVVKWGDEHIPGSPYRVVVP

interaction with FLNA (FLNA): Interacts with FLNA
Tmax (in vivo; 0.05 mg/kg): 1 h
bioavailability (in vivo; 0.05 mg/kg): ~22%
AUC(0-inf) (in vivo; 0.05 mg/kg, AUC0-inf): 0.342 µM·h
Cmax (in vivo; 0.05 mg/kg, Cmax): ~100 nM
concentration at 1 h (in vivo; 0.05 mg/kg, Plasma Conc.): 134 nM
half-life (in vivo; 0.05 mg/kg, T1/2): ~2 h
concentration at 1 h (in vivo; Plasma Conc.): 102 nM
concentration at 3 h (in vivo; Plasma Conc.): 33.6 nM
concentration at 7 h (in vivo; Plasma Conc.): 11.8 nM
SMILES: O=C(O)c1ccccc1C(=O)Nc1ccc(-c2ccccc2)cc1 [AKT]
circulating COMP levels (C57BL/10 mice; ELISA): Reduced
cartilage damage (C57BL/10 mice; day 56): Reduced Cartilage Damage
toxicity (HEK 293 cells): No toxicity
toxicity (chondrocytes): No toxicity
toxicity (hMSCs): No toxicity
reduction of cytokine-induced release of glycosaminoglycans (GAG) [1]: up to 60%
